Experimental data as given in publication doi:10.1101/2021.09.30.462449v1 (biorxiv, 2021).

Legend:
Test in all cases: biochemical
Conditions in all cases: read-out: % inhibition mean (Z'Lyte)
ABL1 T315I = ABL1 T315I (Homo sapiens, UniProt P00519, T315I)
AKT2 (PKB beta) = AKT2 (PKB beta) (Homo sapiens, UniProt P31751)
AXL = AXL (Homo sapiens, UniProt P30530)
CAMK4 (CaMKIV) = CAMK4 (CaMKIV) (Homo sapiens, UniProt Q16566)
CDK18/cyclin Y = CDK18/cyclin Y (Homo sapiens, UniProt Q07002)
CDK5/p25 = CDK5/p25 (Homo sapiens, UniProt Q00535)
CSK = CSK (Homo sapiens, UniProt P41240)
CSNK1G2 (CK1 gamma 2) = CSNK1G2 (CK1 gamma 2) (Homo sapiens, UniProt P78368)
CSNK1G3 (CK1 gamma 3) = CSNK1G3 (CK1 gamma 3) (Homo sapiens, UniProt Q9Y6M4)
CSNK2A1 (CK2 alpha 1) = CSNK2A1 (CK2 alpha 1) (Homo sapiens, UniProt P68400)
DCAMKL1 (DCLK1) = DCAMKL1 (DCLK1) (Homo sapiens, UniProt O15075)
DYRK4 = DYRK4 (Homo sapiens, UniProt Q9NR20)
EGFR (ErbB1) = EGFR (ErbB1) (Homo sapiens, UniProt P00533)
FGR = FGR (Homo sapiens, UniProt P09769)
JAK2 JH1 JH2 V617F = JAK2 JH1 JH2 V617F (Homo sapiens, UniProt O60674, V617F)
JAK3 = JAK3 (Homo sapiens, UniProt P52333)
KIT V559D = KIT V559D (Homo sapiens, UniProt P10721, V559D)
LYN B = LYN B (Homo sapiens, UniProt P07948)
MAP2K2 (MEK2) = MAP2K2 (MEK2) (Homo sapiens, UniProt P36507)
MAP2K6 (MKK6) = MAP2K6 (MKK6) (Homo sapiens, UniProt P52564)
MAPK10 (JNK3) = MAPK10 (JNK3) (Homo sapiens, UniProt P53779)
MET M1250T = MET M1250T (Homo sapiens, UniProt P08581, M1250T)
MYLK2 (skMLCK) = MYLK2 (skMLCK) (Homo sapiens, UniProt Q9H1R3)
PASK = PASK (Homo sapiens, UniProt Q96RG2)
RAF1 (cRAF) Y340D Y341D = RAF1 (cRAF) Y340D Y341D (Homo sapiens, UniProt P04049, Y340D/Y341D)
RPS6KA4 (MSK2) = RPS6KA4 (MSK2) (Homo sapiens, UniProt O75676)
STK4 (MST1) = STK4 (MST1) (Homo sapiens, UniProt Q13043)
TBK1 = TBK1 (Homo sapiens, UniProt Q9UHD2)

CDK5/p25, sequence (Q00535 whole entry): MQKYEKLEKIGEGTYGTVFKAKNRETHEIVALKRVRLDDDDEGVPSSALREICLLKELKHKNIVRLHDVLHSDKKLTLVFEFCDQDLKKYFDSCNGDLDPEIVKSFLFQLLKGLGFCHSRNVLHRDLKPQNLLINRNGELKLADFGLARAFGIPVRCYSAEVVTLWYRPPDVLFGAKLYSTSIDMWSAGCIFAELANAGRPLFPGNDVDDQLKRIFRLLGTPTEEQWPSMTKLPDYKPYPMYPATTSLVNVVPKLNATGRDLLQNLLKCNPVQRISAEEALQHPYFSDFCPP
CDK5/p25, sequence (Q15078 whole entry partner): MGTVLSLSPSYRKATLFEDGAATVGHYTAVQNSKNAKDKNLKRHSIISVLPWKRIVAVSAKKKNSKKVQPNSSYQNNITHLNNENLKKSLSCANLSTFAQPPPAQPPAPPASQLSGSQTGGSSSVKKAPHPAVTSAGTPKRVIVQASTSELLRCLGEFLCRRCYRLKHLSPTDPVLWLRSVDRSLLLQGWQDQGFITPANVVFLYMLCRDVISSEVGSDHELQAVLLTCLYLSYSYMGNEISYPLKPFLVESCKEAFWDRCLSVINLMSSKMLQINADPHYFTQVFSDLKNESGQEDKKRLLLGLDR
STK4 (MST1), sequence (Q13043 whole entry): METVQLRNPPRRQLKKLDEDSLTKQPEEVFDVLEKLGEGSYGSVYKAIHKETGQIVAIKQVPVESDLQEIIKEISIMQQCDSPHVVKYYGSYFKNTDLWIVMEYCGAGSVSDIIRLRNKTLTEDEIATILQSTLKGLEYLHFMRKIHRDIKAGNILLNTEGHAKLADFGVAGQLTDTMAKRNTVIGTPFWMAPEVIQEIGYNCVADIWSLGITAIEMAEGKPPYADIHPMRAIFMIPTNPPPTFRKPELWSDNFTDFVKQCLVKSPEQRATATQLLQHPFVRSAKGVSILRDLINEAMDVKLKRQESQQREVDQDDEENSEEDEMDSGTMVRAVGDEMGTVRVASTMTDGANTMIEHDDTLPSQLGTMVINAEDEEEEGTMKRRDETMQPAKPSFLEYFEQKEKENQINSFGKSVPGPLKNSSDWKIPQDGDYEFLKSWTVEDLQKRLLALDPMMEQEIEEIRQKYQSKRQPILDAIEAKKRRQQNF
JAK2 JH1 JH2 V617F, sequence (O60674 whole entry V617F): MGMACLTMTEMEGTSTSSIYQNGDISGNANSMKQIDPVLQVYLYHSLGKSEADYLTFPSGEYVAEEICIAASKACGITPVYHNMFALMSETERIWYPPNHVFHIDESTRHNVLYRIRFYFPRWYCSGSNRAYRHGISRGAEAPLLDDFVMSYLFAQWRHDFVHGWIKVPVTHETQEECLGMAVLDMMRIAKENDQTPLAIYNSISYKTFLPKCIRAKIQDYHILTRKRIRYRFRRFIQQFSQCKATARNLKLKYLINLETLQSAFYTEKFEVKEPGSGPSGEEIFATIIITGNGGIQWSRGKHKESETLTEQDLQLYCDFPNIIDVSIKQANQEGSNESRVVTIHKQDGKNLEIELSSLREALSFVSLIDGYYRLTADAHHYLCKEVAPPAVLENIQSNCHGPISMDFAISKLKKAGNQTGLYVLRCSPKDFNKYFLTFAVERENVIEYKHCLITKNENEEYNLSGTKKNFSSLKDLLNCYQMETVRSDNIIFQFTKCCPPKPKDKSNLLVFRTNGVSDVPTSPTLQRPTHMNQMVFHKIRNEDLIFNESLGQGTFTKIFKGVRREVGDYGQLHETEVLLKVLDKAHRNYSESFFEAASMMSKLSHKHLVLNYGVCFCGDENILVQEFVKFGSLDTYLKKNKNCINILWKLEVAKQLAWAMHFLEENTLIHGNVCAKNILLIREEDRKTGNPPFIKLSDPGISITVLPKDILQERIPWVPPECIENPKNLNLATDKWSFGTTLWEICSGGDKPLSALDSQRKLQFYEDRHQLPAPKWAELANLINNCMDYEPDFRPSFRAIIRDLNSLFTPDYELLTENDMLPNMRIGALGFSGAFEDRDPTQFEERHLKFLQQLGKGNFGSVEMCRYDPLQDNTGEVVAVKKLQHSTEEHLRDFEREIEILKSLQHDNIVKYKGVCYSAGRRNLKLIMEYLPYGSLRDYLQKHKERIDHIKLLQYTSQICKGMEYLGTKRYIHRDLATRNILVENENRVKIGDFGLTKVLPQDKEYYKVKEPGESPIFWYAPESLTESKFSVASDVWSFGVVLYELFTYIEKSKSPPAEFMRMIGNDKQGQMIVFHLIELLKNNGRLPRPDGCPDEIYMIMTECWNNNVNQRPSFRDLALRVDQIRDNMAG
AXL, sequence (P30530 whole entry): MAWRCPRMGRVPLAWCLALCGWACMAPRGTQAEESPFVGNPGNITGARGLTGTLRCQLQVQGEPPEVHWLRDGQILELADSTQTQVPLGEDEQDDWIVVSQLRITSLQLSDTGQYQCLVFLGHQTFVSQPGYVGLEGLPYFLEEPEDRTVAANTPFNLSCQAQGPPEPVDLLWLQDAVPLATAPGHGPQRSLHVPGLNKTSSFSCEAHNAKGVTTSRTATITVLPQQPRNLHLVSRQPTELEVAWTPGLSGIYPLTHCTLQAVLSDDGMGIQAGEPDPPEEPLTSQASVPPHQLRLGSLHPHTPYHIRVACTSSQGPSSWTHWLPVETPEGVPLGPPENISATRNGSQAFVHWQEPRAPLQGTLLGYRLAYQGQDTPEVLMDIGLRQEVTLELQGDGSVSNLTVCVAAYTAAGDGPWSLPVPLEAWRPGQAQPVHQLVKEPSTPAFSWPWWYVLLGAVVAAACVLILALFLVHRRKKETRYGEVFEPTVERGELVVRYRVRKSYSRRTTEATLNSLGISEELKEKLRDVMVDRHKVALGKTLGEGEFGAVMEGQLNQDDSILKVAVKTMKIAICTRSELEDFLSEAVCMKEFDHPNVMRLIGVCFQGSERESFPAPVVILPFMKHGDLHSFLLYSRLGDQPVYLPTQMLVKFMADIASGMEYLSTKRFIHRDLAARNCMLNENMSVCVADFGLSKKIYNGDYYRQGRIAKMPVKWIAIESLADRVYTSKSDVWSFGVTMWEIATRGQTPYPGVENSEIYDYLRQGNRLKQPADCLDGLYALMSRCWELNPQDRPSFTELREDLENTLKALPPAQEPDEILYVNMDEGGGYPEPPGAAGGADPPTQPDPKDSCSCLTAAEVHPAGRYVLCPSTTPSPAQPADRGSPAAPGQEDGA
CSK, sequence (P41240 whole entry): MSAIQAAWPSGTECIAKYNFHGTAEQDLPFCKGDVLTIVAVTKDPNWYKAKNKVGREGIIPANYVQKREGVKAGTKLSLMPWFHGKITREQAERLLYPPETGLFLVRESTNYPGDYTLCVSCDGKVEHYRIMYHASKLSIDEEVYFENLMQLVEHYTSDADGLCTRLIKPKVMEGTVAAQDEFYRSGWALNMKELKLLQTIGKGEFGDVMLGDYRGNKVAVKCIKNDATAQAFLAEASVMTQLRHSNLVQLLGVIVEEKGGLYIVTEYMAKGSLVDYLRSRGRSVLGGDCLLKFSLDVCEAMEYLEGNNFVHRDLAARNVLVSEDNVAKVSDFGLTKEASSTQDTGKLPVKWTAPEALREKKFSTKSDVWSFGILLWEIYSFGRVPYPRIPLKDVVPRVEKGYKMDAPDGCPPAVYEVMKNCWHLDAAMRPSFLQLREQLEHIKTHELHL
KIT V559D, sequence (P10721 whole entry V559D): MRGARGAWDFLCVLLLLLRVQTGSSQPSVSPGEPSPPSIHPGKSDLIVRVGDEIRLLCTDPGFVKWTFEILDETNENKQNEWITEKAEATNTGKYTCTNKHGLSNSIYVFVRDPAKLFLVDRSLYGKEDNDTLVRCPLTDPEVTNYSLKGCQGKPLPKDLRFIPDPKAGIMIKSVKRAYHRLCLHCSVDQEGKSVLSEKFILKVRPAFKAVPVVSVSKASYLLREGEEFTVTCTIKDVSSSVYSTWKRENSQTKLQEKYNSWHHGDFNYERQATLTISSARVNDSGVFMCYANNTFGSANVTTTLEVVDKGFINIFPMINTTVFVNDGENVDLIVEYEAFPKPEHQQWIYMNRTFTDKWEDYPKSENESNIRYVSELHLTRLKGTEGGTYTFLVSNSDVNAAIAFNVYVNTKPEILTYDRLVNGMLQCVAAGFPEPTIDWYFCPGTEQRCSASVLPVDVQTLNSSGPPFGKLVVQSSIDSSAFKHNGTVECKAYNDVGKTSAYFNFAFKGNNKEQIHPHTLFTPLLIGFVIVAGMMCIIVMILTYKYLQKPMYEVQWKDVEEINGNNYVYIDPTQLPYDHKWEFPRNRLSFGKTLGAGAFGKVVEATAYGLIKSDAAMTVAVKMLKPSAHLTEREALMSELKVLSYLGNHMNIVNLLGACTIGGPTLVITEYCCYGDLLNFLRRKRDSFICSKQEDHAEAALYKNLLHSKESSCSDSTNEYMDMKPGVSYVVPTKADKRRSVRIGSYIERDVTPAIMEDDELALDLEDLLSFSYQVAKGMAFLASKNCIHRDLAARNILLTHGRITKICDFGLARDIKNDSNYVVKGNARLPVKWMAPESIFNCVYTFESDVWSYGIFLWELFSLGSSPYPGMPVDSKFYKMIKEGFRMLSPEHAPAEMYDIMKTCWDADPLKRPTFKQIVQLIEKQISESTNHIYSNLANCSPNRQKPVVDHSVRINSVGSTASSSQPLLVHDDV
MAPK10 (JNK3), sequence (P53779 whole entry): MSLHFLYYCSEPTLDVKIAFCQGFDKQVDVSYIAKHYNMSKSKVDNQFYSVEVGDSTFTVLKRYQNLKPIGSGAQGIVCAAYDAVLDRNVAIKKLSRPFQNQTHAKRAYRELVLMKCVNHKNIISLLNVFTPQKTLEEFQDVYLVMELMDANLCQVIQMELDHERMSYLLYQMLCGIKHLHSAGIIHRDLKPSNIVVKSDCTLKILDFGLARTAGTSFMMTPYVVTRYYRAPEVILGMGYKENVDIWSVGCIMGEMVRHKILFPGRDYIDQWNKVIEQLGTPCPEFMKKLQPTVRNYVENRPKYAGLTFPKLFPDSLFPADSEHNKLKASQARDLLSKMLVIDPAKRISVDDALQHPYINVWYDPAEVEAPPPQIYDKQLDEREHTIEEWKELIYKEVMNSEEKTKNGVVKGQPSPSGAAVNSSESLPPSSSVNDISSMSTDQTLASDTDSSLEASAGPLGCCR

`COc1ccc2nc3cc(Cl)ccc3c(Nc3cc(CN4CCCC4)c(O)c(CN4CCCC4)c3)c2n1` [Pyronaridine, 4-[(7-Chloro-2-methoxybenzo[b][1,5]naphthyridin-10-yl)amino]-2,6-bis(1-pyrrolidinylmethyl)phenol phosphate (1:4)] gave an inhibition at 1 µM (ABL1 T315I) of 11%, an inhibition at 1 µM (AKT2 (PKB beta)) of 1% and an inhibition at 1 µM (AXL) of 1%. For the same compound, the inhibition at 1 µM (CAMK4 (CaMKIV)) was -5%, the inhibition at 1 µM (CDK18/cyclin Y) was 1% and the inhibition at 1 µM (CDK5/p25) was 0%. The inhibition at 1 µM (CSK) was -3%, the inhibition at 1 µM (CSNK1G2 (CK1 gamma 2)) was 4% and the inhibition at 1 µM (CSNK1G3 (CK1 gamma 3)) was 2%. It also gave an inhibition at 1 µM (CSNK2A1 (CK2 alpha 1)) of 7%, an inhibition at 1 µM (DCAMKL1 (DCLK1)) of 0% and an inhibition at 1 µM (DYRK4) of 0%. For the same compound, the inhibition at 1 µM (EGFR (ErbB1)) was -5%, the inhibition at 1 µM (FGR) was 11% and the inhibition at 1 µM (JAK2 JH1 JH2 V617F) was 0%. The inhibition at 1 µM (JAK3) was 1%, the inhibition at 1 µM (KIT V559D) was -1% and the inhibition at 1 µM (LYN B) was -2%. The inhibition at 1 µM (MAP2K2 (MEK2)) was 2%, the inhibition at 1 µM (MAP2K6 (MKK6)) was 3% and the inhibition at 1 µM (MAPK10 (JNK3)) was 0%. For the same compound, the inhibition at 1 µM (MET M1250T) was 0%, the inhibition at 1 µM (MYLK2 (skMLCK)) was 7% and the inhibition at 1 µM (PASK) was -4%. For the same compound, the inhibition at 1 µM (RAF1 (cRAF) Y340D Y341D) was -9%, the inhibition at 1 µM (RPS6KA4 (MSK2)) was -4% and the inhibition at 1 µM (STK4 (MST1)) was -5%. For the same compound, the inhibition at 1 µM (TBK1) was 4%.
